Active and inactive are the calls of the source. The calls are words filed in the database; no cut-off is given here.

Assay [1] concerns the target T1, Estrogen receptor (Homo sapiens) (UniProt P03372).
T1 sequence (whole entry): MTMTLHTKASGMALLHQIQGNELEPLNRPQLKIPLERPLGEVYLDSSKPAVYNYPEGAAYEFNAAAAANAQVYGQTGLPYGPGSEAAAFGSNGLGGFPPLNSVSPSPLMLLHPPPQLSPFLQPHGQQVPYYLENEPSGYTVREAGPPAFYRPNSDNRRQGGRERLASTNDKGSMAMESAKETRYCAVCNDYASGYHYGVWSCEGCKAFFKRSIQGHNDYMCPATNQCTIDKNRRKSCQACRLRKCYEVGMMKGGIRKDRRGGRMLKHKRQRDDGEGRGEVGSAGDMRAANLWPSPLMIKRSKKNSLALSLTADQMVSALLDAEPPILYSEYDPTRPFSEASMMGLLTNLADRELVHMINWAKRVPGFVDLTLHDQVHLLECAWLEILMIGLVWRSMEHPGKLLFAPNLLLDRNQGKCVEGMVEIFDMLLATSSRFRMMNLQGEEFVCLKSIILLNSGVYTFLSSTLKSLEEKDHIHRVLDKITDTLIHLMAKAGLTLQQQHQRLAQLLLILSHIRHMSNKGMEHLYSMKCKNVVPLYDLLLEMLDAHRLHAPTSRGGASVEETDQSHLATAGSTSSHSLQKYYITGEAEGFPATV
Briefly: Displacement of [3H]E2 from Homo sapiens (human) recombinant ER-alpha by HAP binding assay.

Assay [2] concerns MVLN. The assay is described as follows: Estrogenic activity in Homo sapiens (human) MVLN cells assessed as induction of ERE-dependent transcription at 1 uM after 24 hr by luciferase reporter gene assay. It is filed as functional.
The subject of assay [3] is MVLN. The assay is described as follows: Estrogenic activity in Homo sapiens (human) MVLN cells assessed as induction of ERE-dependent transcription at 10 uM after 24 hr by luciferase reporter gene assay. Type of assay: functional, cell-based.
For assay [4], the system named is MVLN. The assay is described as follows: Estrogenic activity in Homo sapiens (human) MVLN cells assessed as induction of ERE-dependent transcription at 10 uM after 24 hr by luciferase reporter gene assay in presence of 0.1 uM antiestrogen, fulvestrant. Type of assay: functional, cell-based.

Take `CN(C)c1ccc(/C=C2\COc3ccccc3C2=O)cc1`: in assay [1], the inhibition entry was “inactive”. Moreover, the Activity in the assay with MVLN [2] was found to be 145%.
For `Cc1ccc(/C=C2\COc3ccccc3C2=O)cc1`, the inhibition result in assay [1] was “inactive”.
For the molecule `COc1ccc2c(c1)OC1(CCC(c3ccccc3)CC1)CC2=O` (stereo not drawn), the inhibition entry in assay [1] was “inactive”.
As for `O=C1CC2(CCCCC2)Oc2cc(O)ccc21`, the outcome with MVLN [3] was Active. Also, the result in the assay on MVLN [4] was inactive. Also, the inhibition entry in assay [1] is “inactive”. Moreover, the Activity in the assay with MVLN [2] was 279%.
For the molecule `COc1ccc2c(c1)OC1(CCCCC1)CC2=O`, the inhibition result in assay [1] was “inactive”. The result in the assay with MVLN [2] was inactive.
Turning to `O=C1/C(=C/c2ccc(O)cc2)COc2ccccc21`, the result in the assay with MVLN [3] was Active. In the assay with MVLN [4], the outcome was inactive. The inhibition entry in assay [1] is “inactive”. For the same molecule, the Activity in the assay on MVLN [2] was determined as 236%.
Consider `COc1cc(OC)c(/C=C2\COc3ccccc3C2=O)c(OC)c1`, for which the inhibition result in assay [1] is “inactive”. The Activity in the assay on MVLN [2] worked out at 134%.
For the molecule `COc1ccc2c(c1)OC1(CCC(C(C)(C)C)CC1)CC2=O` (stereo not drawn), the inhibition entry in assay [1] was “inactive”.
Consider `COc1cccc(/C=C2\COc3ccccc3C2=O)c1`, for which the result in the assay with MVLN [3] was Active. The result with MVLN [4] was inactive. In addition, in assay [1], the inhibition result is “inactive”. Besides, the Activity with MVLN [2] was 243%.
Take `O=C1/C(=C/c2ccccc2)COc2ccccc21`: the inhibition result in assay [1] is “inactive”. In addition, the outcome in the assay with MVLN [2] was inactive.

(Values after ChEMBL document CHEMBL3045364, “Synthesis, structure, and estrogenic activity of 2- and 3-substituted 2,3-dihydro-4H-1-benzopyran-4-ones” (2013).)
